Assay results reported in US9708314B2, “Heterocyclic amide compound” (NISSAN CHEMICAL INDUSTRIES, LTD., priority 2013, dated 2017).

How the values were obtained:
Assay type in all cases: in vivo
[1] = system: transplanted Oryza sativa; assay: Test Example 1: effect on crop, application before weed generation in submerged conditions; details: Application herbicide amount 320 g/ha; Seventeenth Table
Procedure, shortened: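 Pre-emergence application to water surface of submerged pots (4 cm depth, alluvial soil) on sowing day, with 2.5-leaf rice transplanted; emulsion diluted to g/ha rates. Grown in greenhouse at 25–30 °C; 0–5 herbicidal/crop-effect score after three weeks.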

Abutilon theophrasti = assay: Test Example 4: herbicidal effect by application to foliage (diluvial soil, plastic box); details: application to foliage, application herbicide amount 320 g/ha
Procedure, shortened: (§1)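 Plants were grown in sterilized diluvial soil in a greenhouse at 25-30° C for 14 days, then sprayed on stems and leaves with water-diluted emulsion formulation at set rates in g/ha. Weed control and crop injury were scored 3 weeks after treatment on a 0-5 herbicidal-ratio scale, from 0 (≤5%) to 5 (≥90%).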

Alopecurus myosuroides = assay: as above; details: application to foliage, application herbicide amount 320 g/ha
Procedure, shortened: as §1

Amaranthus retroflexus = assay: as above; details: application to foliage, application herbicide amount 320 g/ha
Procedure, shortened: as §1

Apera spica-venti. = assay: as above; details: application to foliage, application herbicide amount 320 g/ha
Procedure, shortened: as §1

Avena fatua = assay: as above; details: application to foliage, application herbicide amount 320 g/ha
Procedure, shortened: as §1

Chenopodium album = assay: as above; details: application to foliage, application herbicide amount 320 g/ha
Procedure, shortened: as §1

Digitaria ciliaris = assay: as above; details: application to foliage, application herbicide amount 320 g/ha
Procedure, shortened: as §1

[2] = system: Echinochloa crus-galli var. crus-galli; assay: as above; details: application to foliage, application herbicide amount 320 g/ha
Procedure, shortened: as §1

Galium spurium = assay: as above; details: application to foliage, application herbicide amount 320 g/ha
Procedure, shortened: as §1

Lolium multiflorum Lam. = assay: as above; details: application to foliage, application herbicide amount 320 g/ha
Procedure, shortened: as §1

Setaria viridis = assay: as above; details: application to foliage, application herbicide amount 320 g/ha
Procedure, shortened: as §1

Stellaria media = assay: as above; details: application to foliage, application herbicide amount 320 g/ha
Procedure, shortened: as §1

Veronica persica = assay: as above; details: application to foliage, application herbicide amount 320 g/ha
Procedure, shortened: as §1

[3] = system: Beta vulgaris ssp. vulgaris; assay: Test Example 4: effect on crop by application to foliage (diluvial soil, plastic box); details: application to foliage, application herbicide amount 320 g/ha
Procedure, shortened: as §1

Brassica campestris L. = assay: as above; details: application to foliage, application herbicide amount 320 g/ha
Procedure, shortened: as §1

Glycine max = assay: as above; details: application to foliage, application herbicide amount 320 g/ha
Procedure, shortened: as §1

Triticum aestivum = assay: as above; details: application to foliage, application herbicide amount 320 g/ha
Procedure, shortened: as §1

Zea mays = assay: as above; details: application to foliage, application herbicide amount 320 g/ha
Procedure, shortened: as §1

[4] = system: directly sowed Oryza sativa; assay: as above; details: application to foliage, application herbicide amount 320 g/ha
Procedure, shortened: as §1

Row | Structure (SMILES) | a: transplanted Oryza sativa (effect on crop grade) [1] | M: herbicidal effect on Abutilon theophrasti (Abutilon theophrasti) | J: herbicidal effect on Alopecurus myosuroides (Alopecurus myosuroides) | N: herbicidal effect on Amaranthus retroflexus (Amaranthus retroflexus) | L: herbicidal effect on Apera spica-venti. (Apera spica-venti.) | I: herbicidal effect on Avena fatua (Avena fatua) | O: herbicidal effect on Chenopodium album (Chenopodium album) | F: herbicidal effect on Digitaria ciliaris (Digitaria ciliaris) | H: herbicidal effect on Echinochloa crus-galli var. crus-galli [2] | Q: herbicidal effect on Galium spurium (Galium spurium) | K: herbicidal effect on Lolium multiflorum Lam. (Lolium multiflorum Lam.) | G: herbicidal effect on Setaria viridis (Setaria viridis) | P: herbicidal effect on Stellaria media (Stellaria media) | R: herbicidal effect on Veronica persica (Veronica persica) | f: effect on crop, Beta vulgaris ssp. vulgaris [3] | g: effect on crop, Brassica campestris L. (Brassica campestris L.) | d: effect on crop, Glycine max (Glycine max) | e: effect on crop, Triticum aestivum (Triticum aestivum) | c: effect on crop, Zea mays (Zea mays) | b: effect on crop, directly sowed Oryza sativa [4]
1 | Cn1nnnc1NC(=O)c1ccc(C(F)(F)F)n2c(Br)nnc12 [2-009] | 0 (Herbicidal ratio of 5% or less (almost no effect)) | 5 (Herbicidal ratio of 90% or more (almost completely withered)) | 1 (Herbicidal ratio of 5% or more and less than 20%) | 5 (Herbicidal ratio of 90% or more (almost completely withered)) | 1 (Herbicidal ratio of 5% or more and less than 20%) | 3 (Herbicidal ratio of 40% or more and less than 70%) | 5 (Herbicidal ratio of 90% or more (almost completely withered)) | 4 (Herbicidal ratio of 70% or more and less than 90%) | 5 (Herbicidal ratio of 90% or more (almost completely withered)) | 4 (Herbicidal ratio of 70% or more and less than 90%) | 2 (Herbicidal ratio of 20% or more and less than 40%) | 3 (Herbicidal ratio of 40% or more and less than 70%) | 5 (Herbicidal ratio of 90% or more (almost completely withered)) | 4 (Herbicidal ratio of 70% or more and less than 90%) | 5 (Herbicidal ratio of 90% or more (almost completely withered)) | 4 (Herbicidal ratio of 70% or more and less than 90%) | 4 (Herbicidal ratio of 70% or more and less than 90%) | 1 (Herbicidal ratio of 5% or more and less than 20%) | 1 (Herbicidal ratio of 5% or more and less than 20%) | 2 (Herbicidal ratio of 20% or more and less than 40%)
2 | COc1ccc(-c2nnc3c(C(=O)Nc4nnnn4C)ccc(C(F)(F)F)n23)cc1 [2-011] | 2 (Herbicidal ratio of 20% or more and less than 40%) | 5 (Herbicidal ratio of 90% or more (almost completely withered)) | 3 (Herbicidal ratio of 40% or more and less than 70%) | 5 (Herbicidal ratio of 90% or more (almost completely withered)) | 3 (Herbicidal ratio of 40% or more and less than 70%) | 3 (Herbicidal ratio of 40% or more and less than 70%) | 5 (Herbicidal ratio of 90% or more (almost completely withered)) | 5 (Herbicidal ratio of 90% or more (almost completely withered)) | 5 (Herbicidal ratio of 90% or more (almost completely withered)) | 3 (Herbicidal ratio of 40% or more and less than 70%) | 2 (Herbicidal ratio of 20% or more and less than 40%) | 3 (Herbicidal ratio of 40% or more and less than 70%) | 5 (Herbicidal ratio of 90% or more (almost completely withered)) | 5 (Herbicidal ratio of 90% or more (almost completely withered)) | 5 (Herbicidal ratio of 90% or more (almost completely withered)) | 1 (Herbicidal ratio of 5% or more and less than 20%) | 4 (Herbicidal ratio of 70% or more and less than 90%) | 1 (Herbicidal ratio of 5% or more and less than 20%) | 1 (Herbicidal ratio of 5% or more and less than 20%) | 5 (Herbicidal ratio of 90% or more (almost completely withered))
3 | Cn1nnnc1NC(=O)c1ccc(C(F)(F)F)n2c(-c3ccc(Cl)cc3)nnc12 [2-012] | 1 (Herbicidal ratio of 5% or more and less than 20%) | 5 (Herbicidal ratio of 90% or more (almost completely withered)) | 2 (Herbicidal ratio of 20% or more and less than 40%) | 5 (Herbicidal ratio of 90% or more (almost completely withered)) | 2 (Herbicidal ratio of 20% or more and less than 40%) | 3 (Herbicidal ratio of 40% or more and less than 70%) | 5 (Herbicidal ratio of 90% or more (almost completely withered)) | 4 (Herbicidal ratio of 70% or more and less than 90%) | 4 (Herbicidal ratio of 70% or more and less than 90%) | 4 (Herbicidal ratio of 70% or more and less than 90%) | 2 (Herbicidal ratio of 20% or more and less than 40%) | 1 (Herbicidal ratio of 5% or more and less than 20%) | 5 (Herbicidal ratio of 90% or more (almost completely withered)) | 4 (Herbicidal ratio of 70% or more and less than 90%) | 5 (Herbicidal ratio of 90% or more (almost completely withered)) | 4 (Herbicidal ratio of 70% or more and less than 90%) | 4 (Herbicidal ratio of 70% or more and less than 90%) | 4 (Herbicidal ratio of 70% or more and less than 90%) | 3 (Herbicidal ratio of 40% or more and less than 70%) | 5 (Herbicidal ratio of 90% or more (almost completely withered))
4 | CSc1nnc2c(C(=O)Nc3nnnn3C)ccc(C(F)(F)F)n12 [2-013] | 3 (Herbicidal ratio of 40% or more and less than 70%) | 5 (Herbicidal ratio of 90% or more (almost completely withered)) | 3 (Herbicidal ratio of 40% or more and less than 70%) | 5 (Herbicidal ratio of 90% or more (almost completely withered)) | 4 (Herbicidal ratio of 70% or more and less than 90%) | 4 (Herbicidal ratio of 70% or more and less than 90%) | 5 (Herbicidal ratio of 90% or more (almost completely withered)) | 5 (Herbicidal ratio of 90% or more (almost completely withered)) | 5 (Herbicidal ratio of 90% or more (almost completely withered)) | 4 (Herbicidal ratio of 70% or more and less than 90%) | 3 (Herbicidal ratio of 40% or more and less than 70%) | 5 (Herbicidal ratio of 90% or more (almost completely withered)) | 5 (Herbicidal ratio of 90% or more (almost completely withered)) | 4 (Herbicidal ratio of 70% or more and less than 90%) | 5 (Herbicidal ratio of 90% or more (almost completely withered)) | 4 (Herbicidal ratio of 70% or more and less than 90%) | 4 (Herbicidal ratio of 70% or more and less than 90%) | 4 (Herbicidal ratio of 70% or more and less than 90%) | 3 (Herbicidal ratio of 40% or more and less than 70%) | 5 (Herbicidal ratio of 90% or more (almost completely withered))
